Assay results reported in patent US20090036448A1, “PYRIMIDINE DERIVATIVES AND METHODS OF TREATMENT RELATED TO THE USE THEREOF” (TAISHO PHARMECUTICAL CO., LTD., priority 2004, published 2009).

Target: MCH receptor (Homo sapiens, UniProt Q99705)
Experiment: Receptor binding assay with Radiolabelled MCH Ligand
Parameters: expressed in transfected cells; host or cells: 293 cells (human kidney, ATCC), transient transfection; crude membranes
Conditions: class by percent of control at 10^-7 M or IC50
Source text: In addition to the methods described herein, another means for evaluating a test compound is by determining binding affinities to the MCH receptor. This type of assay generally requires a radiolabelled ligand to the MCH receptor. Absent the use of known ligands for the MCH receptor and radiolabels thereof, compounds of Formula (I) can be labelled with a radioisotope and used in an assay for evaluating the affinity of a test compound to the MCH receptor.
A radiolabelled MCH compound of Formula (I) can be used in a screening assay to identify/evaluate compounds. In general terms, a newly synthesized or identified compound (i.e., test compound) can be evaluated for its ability to reduce binding of the “radiolabelled compound of Formula (I)” to the MCH receptor. Accordingly, the ability to compete with the “radio-labelled compound of Formula (I)” or Radiolabelled MCH Ligand for the binding to the MCH receptor directly correlates to its binding affinity of the test compound to the MCH receptor.
293 cells (human kidney, ATCC), transiently transfected with 10 μg human MCH receptor and 60 μl Lipofectamine (per 15-cm dish), are grown in the dish for 24 hours (75% confluency) with a media change and removed with 10 mL/dish of Hepes-EDTA buffer (20 mM Hepes+10 mM EDTA, pH 7.4). The cells are then centrifuged in a Beckman Coulter centrifuge for 20 minutes, 17,000 rpm (JA-25.50 rotor). Subsequently, the pellet is resuspended in 20 mM Hepes+1 mM EDTA, pH 7.4 and homogenized with a 50-mL Dounce homogenizer and again centrifuged. After removing the supernatant, the pellets can be stored at −80° C., until used in binding assay. When used in the assay, membranes are thawed on ice for 20 minutes and then 10 mL of incubation buffer (20 mM Hepes, 1 mM MgCl2, 100 mM NaCl, pH 7.4) added. The membranes are then vortexed to resuspend the crude membrane pellet and homogenized with a Brinkmann PT-3100 Polytron homogenizer for 15 seconds at setting 6. The concentration of membrane protein is determined using the BRL Bradford protein assay.
For total binding, a total volume of 50 ul of appropriately diluted membranes (diluted in assay buffer containing 50 mM Tris HCl (pH 7.4), 1 mM MgCl2, and 1 mM EDTA; 5-50 ug protein) is added to 96-well polyproylene microtiter plates followed by addition of 100 μl of assay buffer and 50 μl of Radiolabelled MCH Ligand. For nonspecific binding, 50 μl of assay buffer is added instead of 100 μl and an additional 50 μl of 10 uM cold MCH is added before 50 μl of Radiolabelled MCH Ligand is added. Plates are then incubated at room temperature for 60-120 minutes. The binding reaction is terminated by filtering assay plates through a Microplate Devices GF/C Unifilter filtration plate with a Brandell 96-well plate harvester followed by washing with cold 50 mM Tris HCl, pH 7.4 containing 0.9% NaCl. Then, the bottom of the filtration plate are sealed, 50 ul of Optiphase Supermix is added to each well, the top of the plates are sealed, and plates are counted in a Trilux MicroBeta scintillation counter. For compound competition studies, instead of adding 100 μl of assay buffer, 100 μl of appropriately diluted test compound is added to appropriate wells followed by addition of 50 μl of Radiolabelled MCH Ligand.
The test compounds are initially assayed at 1 and 0.1 μM and then at a range of concentrations chosen such that the middle dose would cause about 50% inhibition of a Radiolabelled MCH Ligand binding (i.e., IC50). Specific binding in the absence of test compound (BO) is the difference of total binding (BT) minus non-specific binding (NSB) and similarly specific binding (in the presence of test compound) (B) is the difference of displacement binding (BD) minus non-specific binding (NSB). IC50 is determined from an inhibition response curve, logit-log plot of % B/BO vs. concentration of test compound.
Ki is calculated by the Cheng and Prustoff transformation: […]

Chain of MCH receptor (Q99705 whole entry): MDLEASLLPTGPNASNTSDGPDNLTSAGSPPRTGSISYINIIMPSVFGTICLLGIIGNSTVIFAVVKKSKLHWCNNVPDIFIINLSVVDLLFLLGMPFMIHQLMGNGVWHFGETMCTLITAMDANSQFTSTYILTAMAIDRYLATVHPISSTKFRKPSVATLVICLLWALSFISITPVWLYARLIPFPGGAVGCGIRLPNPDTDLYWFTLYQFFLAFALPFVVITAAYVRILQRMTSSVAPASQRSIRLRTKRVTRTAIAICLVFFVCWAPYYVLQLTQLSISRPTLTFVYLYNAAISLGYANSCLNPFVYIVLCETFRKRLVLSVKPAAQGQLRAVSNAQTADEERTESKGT

Structure (SMILES) | class
Cc1nc(N[C@H]2CC[C@@H](NC(=O)/C=C/c3ccccc3)CC2)cc(N(C)C)n1 [compound 210] | 3 (Class 3: The value of percent of control at 10^−7 M was more than 60% or the value of IC50 was more than 200 nM.)
Cc1nc(N[C@H]2CC[C@@H](NC(=O)C3CC3)CC2)cc(N(C)C)n1 [compound 211] | 3 (Class 3: The value of percent of control at 10^−7 M was more than 60% or the value of IC50 was more than 200 nM.)
Cc1nc(N[C@H]2CC[C@@H](NC(=O)C3CCCCC3)CC2)cc(N(C)C)n1 [compound 212] | 3 (Class 3: The value of percent of control at 10^−7 M was more than 60% or the value of IC50 was more than 200 nM.)
Cc1nc(N[C@H]2CC[C@@H](NC(=O)Cc3ccc(Cl)cc3)CC2)cc(N(C)C)n1 [compound 213] | 3 (Class 3: The value of percent of control at 10^−7 M was more than 60% or the value of IC50 was more than 200 nM.)
Cc1nc(N[C@H]2CC[C@@H](NC(=O)C3(c4ccc(Cl)cc4)CCCC3)CC2)cc(N(C)C)n1 [compound 214] | 1 (Class 1: The value of percent of control at 10^−7 M was less than 40% or the value of IC50 was less than 50 nM.)
Cc1nc(N[C@H]2CC[C@@H](NC(=O)c3c(-c4c(F)cccc4Cl)noc3C)CC2)cc(N(C)C)n1 [compound 215, 3-(2-chloro-6-fluorophenyl)-N-(cis-4-{[6-(dimethylamino)-2-methylpyrimidin-4-yl]amino}cyclohexyl)-5-methylisoxazole-4-carboxamide] | 1 (Class 1: The value of percent of control at 10^−7 M was less than 40% or the value of IC50 was less than 50 nM.)
Cc1nc(N[C@H]2CC[C@@H](NC(=O)c3scc(S(=O)(=O)c4ccc(Cl)cc4)c3C)CC2)cc(N(C)C)n1 [compound 216] | 3 (Class 3: The value of percent of control at 10^−7 M was more than 60% or the value of IC50 was more than 200 nM.)
Cc1nc(N[C@H]2CC[C@@H](NC(=O)c3ccc(N(C)C)cc3)CC2)cc(N(C)C)n1 [compound 217] | 3 (Class 3: The value of percent of control at 10^−7 M was more than 60% or the value of IC50 was more than 200 nM.)
Cc1nc(N[C@H]2CC[C@@H](NC(=O)c3ccc(F)c(F)c3)CC2)cc(N(C)C)n1 [compound 218, N-(cis-4-{[6-(dimethylamino)-2-methylpyrimidin-4-yl]amino}cyclohexyl)-3,4-difluorobenzamide] | 1 (Class 1: The value of percent of control at 10^−7 M was less than 40% or the value of IC50 was less than 50 nM.)
COc1ccc(C(=O)N[C@H]2CC[C@@H](Nc3cc(N(C)C)nc(C)n3)CC2)cc1OC [compound 219] | 3 (Class 3: The value of percent of control at 10^−7 M was more than 60% or the value of IC50 was more than 200 nM.)
CCOc1ccc(C(=O)N[C@H]2CC[C@@H](Nc3cc(N(C)C)nc(C)n3)CC2)cc1 [compound 220] | 3 (Class 3: The value of percent of control at 10^−7 M was more than 60% or the value of IC50 was more than 200 nM.)
Cc1nc(N[C@H]2CC[C@@H](NC(=O)c3ccc(F)cc3)CC2)cc(N(C)C)n1 [compound 221, N-(cis-4-{[6-(dimethylamino)-2-methylpyrimidin-4-yl]amino}cyclohexyl)-4-fluorobenzamide] | 3 (Class 3: The value of percent of control at 10^−7 M was more than 60% or the value of IC50 was more than 200 nM.)
Cc1nc(N[C@H]2CC[C@@H](NC(=O)c3ccco3)CC2)cc(N(C)C)n1 [compound 222] | 3 (Class 3: The value of percent of control at 10^−7 M was more than 60% or the value of IC50 was more than 200 nM.)
Cc1nc(N[C@H]2CC[C@@H](NC(=O)c3ccno3)CC2)cc(N(C)C)n1 [compound 223] | 3 (Class 3: The value of percent of control at 10^−7 M was more than 60% or the value of IC50 was more than 200 nM.)
Cc1nc(N[C@H]2CC[C@@H](NC(=O)c3ccccc3I)CC2)cc(N(C)C)n1 [compound 224] | 3 (Class 3: The value of percent of control at 10^−7 M was more than 60% or the value of IC50 was more than 200 nM.)
Cc1nc(N[C@H]2CC[C@@H](NC(=O)N3CCOCC3)CC2)cc(N(C)C)n1 [compound 225] | 3 (Class 3: The value of percent of control at 10^−7 M was more than 60% or the value of IC50 was more than 200 nM.)
CSc1ncccc1C(=O)N[C@H]1CC[C@@H](Nc2cc(N(C)C)nc(C)n2)CC1 [compound 226] | 3 (Class 3: The value of percent of control at 10^−7 M was more than 60% or the value of IC50 was more than 200 nM.)
COC(=O)c1ccc(C(=O)N[C@H]2CC[C@@H](Nc3cc(N(C)C)nc(C)n3)CC2)cc1 [compound 227] | 3 (Class 3: The value of percent of control at 10^−7 M was more than 60% or the value of IC50 was more than 200 nM.)
Cc1nc(N[C@H]2CC[C@@H](NC(=O)c3nn(-c4ccccc4)nc3C)CC2)cc(N(C)C)n1 [compound 228] | 3 (Class 3: The value of percent of control at 10^−7 M was more than 60% or the value of IC50 was more than 200 nM.)
Cc1nc(N[C@H]2CC[C@@H](NC(=O)c3snnc3C)CC2)cc(N(C)C)n1 [compound 229] | 3 (Class 3: The value of percent of control at 10^−7 M was more than 60% or the value of IC50 was more than 200 nM.)
COc1ccc(Oc2ccc([N+](=O)[O-])cc2C(=O)N[C@H]2CC[C@@H](Nc3cc(N(C)C)nc(C)n3)CC2)cc1 [compound 230, N-(cis-4-{[6-(dimethylamino)-2-methylpyrimidin-4-yl]amino}cyclohexyl)-2-(4-methoxyphenoxy)-5-nitrobenzamide] | 2 (Class 2: The value of percent of control at 10^−7 M was from 40% to 60% or the value of IC50 was from 50 nM to 200 nM.)
Cc1nc(N[C@H]2CC[C@@H](NC(=O)c3ccc4ccccc4c3)CC2)cc(N(C)C)n1 [compound 231] | 3 (Class 3: The value of percent of control at 10^−7 M was more than 60% or the value of IC50 was more than 200 nM.)
Cc1nc(N[C@H]2CC[C@@H](NC(=O)c3cccc([N+](=O)[O-])c3)CC2)cc(N(C)C)n1 [compound 232, N-(cis-4-{[6-(dimethylamino)-2-methylpyrimidin-4-yl]amino}cyclohexyl)-3-nitrobenzamide] | 3 (Class 3: The value of percent of control at 10^−7 M was more than 60% or the value of IC50 was more than 200 nM.)
Cc1nc(N[C@H]2CC[C@@H](NC(=O)c3cnn(-c4ccc([N+](=O)[O-])cc4)c3C(F)(F)F)CC2)cc(N(C)C)n1 [compound 233] | 3 (Class 3: The value of percent of control at 10^−7 M was more than 60% or the value of IC50 was more than 200 nM.)
Cc1nc(N[C@H]2CC[C@@H](NC(=O)COc3ccccc3)CC2)cc(N(C)C)n1 [compound 234] | 3 (Class 3: The value of percent of control at 10^−7 M was more than 60% or the value of IC50 was more than 200 nM.)
Cc1nc(N[C@H]2CC[C@@H](NC(=O)Cc3ccccc3)CC2)cc(N(C)C)n1 [compound 235] | 3 (Class 3: The value of percent of control at 10^−7 M was more than 60% or the value of IC50 was more than 200 nM.)
Cc1nc(N[C@H]2CC[C@@H](NC(=O)C3C[C@H]3c3ccccc3)CC2)cc(N(C)C)n1 (stereo partly shown) [compound 236] | 3 (Class 3: The value of percent of control at 10^−7 M was more than 60% or the value of IC50 was more than 200 nM.)
Cc1nc(N[C@H]2CC[C@@H](NC(=O)c3ccc4c(c3)OCO4)CC2)cc(N(C)C)n1 [compound 237] | 3 (Class 3: The value of percent of control at 10^−7 M was more than 60% or the value of IC50 was more than 200 nM.)
